# Patent US20210138090A1, “uPAR targeting peptide for use in peroperative optical imaging of invasive cancer” (FLUOGUIDE A/S, priority 2014, published 2021)
# Square brackets hold non-standard residues; d marks the D form. Peptide text beside a SMILES is read from it. * marks the point of attachment. IRDye800CW = CC1(C)C(/C=C/C2=C(Oc3ccc(S(=O)(=O)O)cc3)C(=C/C=C3/N(CCCCS(=O)(=O)O)c4ccc(S(=O)(=O)O)cc4C3(C)C)/CCC2)=[N+](CCCCCC(=O)*)c2ccc(S(=O)(=O)[O-])cc21; Cha = N[C@@H](CC1CCCCC1)C(=O)O; AEEA = NCCOCCOCC(=O)O
# How the values were obtained:
# [1] = test system: orthotopic GBM (U-87 MG-luc2 cells); test: dynamic NIR imaging of orthotopic GBM on cross sectioned brain (Fluobeam); type: in vivo, mice; conditions: for tumor mean fluorescence intensity (MFI): 333 ms exposure
# Procedure: All experimental procedures in animals were carried out in accordance with the approval by The Animal Experiments Inspectorate, Denmark. 7-10-week-old female nude mice (strain: Rj:NMRI-Foxn1nu/nu, JANVIER LABS, France) were orthotopically xenografted with U-87 MG-luc2 cells.
# The orthotopic GBM tumor model was established by inoculation of 500.000 cells in 10 μL ice cold PBS in the right hemisphere (1.5 mm lateral and 0.5 mm posterior to the bregma at 2 mm depth) using a stereotaxic frame (KOPF INSTRUMENTS, Tujunga, Calif., USA) with the automated microinjection pump UMP3 (WPI, Sarasota, Fla., USA). The cells were injected over 5 min with the syringe kept in place for further 3 min before retraction. Tumor growth was subsequently monitored on MRI with the BioSpec 7T (Bruker, Billerica, Mass., USA) with axial and coronal T2-wighted sequences. When the tumor size reached 2-17 mm^3, the animals were included in the fluorescence imaging protocol.
# All image acquisition was performed with the Fluobeam system with (Fluosoft version: 2.2.1) (Fluoptics, Grenoble, France). To characterize the in vivo biodistribution and tumor imaging properties, IRDye800-AE344 was administered through tail vein injection into all the GBM bearing mice (n=35) at four different doses: 1 nmol, 3 nmol, 6 nmol, and 12 nmol. Two mice were sacrificed for each time point and the brain was removed and cross sectioned through the tumor for imaging. […] Accordingly, image acquisition was performed at following time points after injection: • 1 nmol: 0.5 h, 1 h, and 2 h • 3 nmol: 1 h, 2 h, 3 h, and 5 h • 6 nmol: 1 h, 3 h, 6 h, and 12 h • 12 nmol: 1 h, 3 h, 5 h, 10 h, 15 h, and 24 h
# Images were analyzed and processed in ImageJ 1.52a, NIH, USA. Signal measurements were performed on the raw images generated by the Fluoptics system. Tumor signal was measured as a mean fluorescence intensity of the whole tumor and background signal was measured as the mean of a representative area with no tumor on the contralateral hemisphere. Presented pictures are contrast enhanced in ImageJ with the Contrast Enhancement (Saturated pixels: 0.3%).
# [2] = vis/NIR spectral properties; type: physicochemical
# Procedure: Fluorophore excitation and emission profiles were obtained with PTI QuantaMaster 400 (Horiba Ltd., Japan). Excitation profile was measured at λemission=850 nm and the emission profile were measured at λexcitation=740 nm with xenon arc lamps as excitation source. Absorption was measured on a Cary 300 UV-Vis (Agilent, Santa Clara, Calif., USA).
smiles,measurement,setting,value
"CC(C)C[C@H](NC(=O)[C@H](Cc1ccc(O)cc1)NC(=O)[C@@H](CCCNC(=N)N)NC(=O)[C@@H](CO)NC(=O)[C@H](Cc1ccccc1)NC(=O)[C@H](CC1CCCCC1)NC(=O)[C@H](CC(=O)O)NC(=O)COCCOCCNC(=O)COCCOCCNC(=O)[C@H](CCC(=O)O)NC(=O)[C@H](CCC(=O)O)NC(=O)CCCCC[N+]1=C(/C=C/C2=C(Oc3ccc(S(=O)(=O)O)cc3)C(=C/C=C3/N(CCCCS(=O)(=O)O)c4ccc(S(=O)(=O)O)cc4C3(C)C)/CCC2)C(C)(C)c2cc(S(=O)(=O)[O-])ccc21)C(=O)N[C@@H](Cc1c[nH]c2ccccc12)C(=O)N[C@@H](CO)C(=O)O [IRDye800CW-AE344, IRDye800-Glu-Glu-O2Oc-O2Oc-Asp-Cha-Phe-D-ser-D-arg-Tyr-Leu-Trp-Ser-OH] (IRDye800CW-EE[AEEA][AEEA]D[Cha]F[dS][dR]YLWS-OH)",maximal TBR,"[1]; 1 nmol, at 0.5 h",4.4
same,tumor mean fluorescence intensity (MFI),"[1]; 1 nmol, at time of maximal TBR (0.5 h)",29 a.u.
same,maximal TBR,"[1]; 3 nmol, at 1 h",6.6
same,tumor mean fluorescence intensity (MFI),"[1]; 3 nmol, at time of maximal TBR (1 h)",77 a.u.
same,TBR,"[1]; 6 nmol, 1 h",4.7
same,tumor MFI,"[1]; 6 nmol, 1 h",108 a.u.
same,tumor mean fluorescence intensity (MFI),"[1]; 6 nmol, 3 h",82 a.u.
same,TBR (highest),"[1]; 6 nmol, 3 h after injection",7.0
same,TBR,"[1]; 6 nmol, 6 h",6.1
same,TBR,"[1]; 6 nmol, 12 h",4.5
same,decrease in tumor MFI,"[1]; 6 nmol, from 1 h to 3 h",24%
same,TBR,"[1]; 6 nmol, from 1 h to 12 h after injection",above 4.5
same,peak time of TBR,[1]; 12 nmol,15 h
same,tumor MFI relative to that at 6 nmol,[1]; 12 nmol,58%
same,maximal TBR,"[1]; 12 nmol, at 15 h",6.7
same,tumor mean fluorescence intensity (MFI),"[1]; 12 nmol, at time of maximal TBR (15 h)",48 a.u.
same,Stokes shift,[2],10 nm
same,"absorption peak λabs,max",[2],777 nm
same,"excitation peak λexcitation,max",[2],784 nm
same,"peak emission λemission,max",[2],794 nm
